According to ChEMBL document CHEMBL3763124, “N-Benzylbenzamides: A Novel Merged Scaffold for Orally Available Dual Soluble Epoxide Hydrolase/Peroxisome Proliferator-Activated Receptor γ Modulators” (J Med Chem, 2016):
Converted amounts (≈) assume the structure as drawn. The source made the active and inactive calls. The rule behind the calls is not given here.

Experiments:
[1] = target: T1, Peroxisome proliferator-activated receptor alpha (Homo sapiens, UniProt Q07869); details: cos-7
T1 sequence (Q07869 whole entry): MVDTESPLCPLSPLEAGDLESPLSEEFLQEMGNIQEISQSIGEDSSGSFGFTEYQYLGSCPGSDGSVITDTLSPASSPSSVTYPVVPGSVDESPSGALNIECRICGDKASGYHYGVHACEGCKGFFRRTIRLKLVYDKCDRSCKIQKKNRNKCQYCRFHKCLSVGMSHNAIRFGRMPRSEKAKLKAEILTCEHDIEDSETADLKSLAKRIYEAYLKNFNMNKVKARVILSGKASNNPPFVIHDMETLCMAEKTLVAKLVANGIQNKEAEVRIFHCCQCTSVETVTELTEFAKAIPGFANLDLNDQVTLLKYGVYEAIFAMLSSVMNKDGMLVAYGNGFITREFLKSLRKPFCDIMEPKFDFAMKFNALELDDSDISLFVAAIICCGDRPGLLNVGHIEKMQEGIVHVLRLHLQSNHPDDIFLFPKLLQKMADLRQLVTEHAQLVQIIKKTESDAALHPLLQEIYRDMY
Description: Transactivation of human PPARalpha expressed in African green monkey COS7 cells incubated overnight by dual-glo luciferase reporter gene assay

[2] = target: T2, Peroxisome proliferator-activated receptor alpha (Homo sapiens) (UniProt Q07869); assay: Transactivation of human PPARalpha expressed in African green monkey COS7 cells incubated overnight by dual-glo luciferase reporter assay relative to GW7647; type: cell-based; details: COS-7
T2 sequence (whole entry): T1 sequence (Q07869 whole entry)

[3] = target: T3, Peroxisome proliferator-activated receptor delta (Homo sapiens, UniProt Q03181); assay: Transactivation of human PPARdelta expressed in African green monkey COS7 cells incubated overnight by dual-glo luciferase reporter gene assay; type: cell-based; details: cos-7
T3 sequence (Q03181 whole entry): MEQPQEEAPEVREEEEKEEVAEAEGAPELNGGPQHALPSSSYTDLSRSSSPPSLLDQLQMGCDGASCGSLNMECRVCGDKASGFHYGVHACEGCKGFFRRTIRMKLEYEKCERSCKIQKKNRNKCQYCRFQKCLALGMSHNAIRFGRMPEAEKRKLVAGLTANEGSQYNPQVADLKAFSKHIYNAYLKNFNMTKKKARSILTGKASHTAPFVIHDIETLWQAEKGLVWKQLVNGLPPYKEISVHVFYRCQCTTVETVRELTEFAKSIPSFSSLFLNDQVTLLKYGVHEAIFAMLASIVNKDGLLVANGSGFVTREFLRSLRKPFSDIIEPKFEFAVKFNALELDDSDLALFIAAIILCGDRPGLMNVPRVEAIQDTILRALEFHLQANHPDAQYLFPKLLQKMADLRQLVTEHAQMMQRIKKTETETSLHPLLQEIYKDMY

[4] = Solubility of the compound in water by microplate reader analysis; type: physicochemical
[5] = target: T4, Peroxisome proliferator-activated receptor delta (Homo sapiens) (UniProt Q03181); assay: Transactivation of human PPARdelta expressed in African green monkey COS7 cells at 10 uM incubated overnight by dual-glo luciferase reporter assay; type: cell-based; details: COS-7
T4 sequence (whole entry): T3 sequence (Q03181 whole entry)

[6] = target: T5, Bifunctional epoxide hydrolase 2 (Homo sapiens) (UniProt P34913); assay: Inhibition of human recombinant sEH using PHOME as substrate at 10 uM preincubated for 30 mins followed by substrate addition measured for 30 mins by fluorescence-based assay
T5 sequence (whole entry): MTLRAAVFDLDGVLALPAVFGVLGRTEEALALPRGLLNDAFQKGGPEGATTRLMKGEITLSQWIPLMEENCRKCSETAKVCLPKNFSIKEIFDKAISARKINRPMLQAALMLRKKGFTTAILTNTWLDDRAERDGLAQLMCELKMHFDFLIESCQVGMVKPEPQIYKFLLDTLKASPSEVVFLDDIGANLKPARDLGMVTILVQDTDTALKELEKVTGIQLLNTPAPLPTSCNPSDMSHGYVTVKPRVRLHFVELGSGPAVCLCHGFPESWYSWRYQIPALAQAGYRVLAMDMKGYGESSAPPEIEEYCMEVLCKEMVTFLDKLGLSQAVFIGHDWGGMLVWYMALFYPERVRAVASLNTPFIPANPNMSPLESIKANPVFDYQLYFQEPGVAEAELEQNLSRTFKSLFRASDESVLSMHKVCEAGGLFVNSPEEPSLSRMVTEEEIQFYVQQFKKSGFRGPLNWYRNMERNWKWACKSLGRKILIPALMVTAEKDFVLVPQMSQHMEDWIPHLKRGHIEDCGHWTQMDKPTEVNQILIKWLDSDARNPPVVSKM

[7] = target: T6, Bifunctional epoxide hydrolase 2 (Homo sapiens, UniProt P34913); assay: Inhibition of human recombinant sEH using PHOME as substrate preincubated for 30 mins followed by substrate addition measured for 30 mins by fluorescence-based assay
T6 sequence (P34913 whole entry): T5 sequence (whole entry)

[8] = target: T2, Peroxisome proliferator-activated receptor alpha (Homo sapiens); assay: Transactivation of human PPARalpha expressed in African green monkey COS7 cells at 10 uM incubated overnight by dual-glo luciferase reporter assay; type: cell-based; details: COS-7

Row | SMILES | EC50 [1] | Emax [2] | EC50 [3] | solubility [4] [µM] | Emax [5] | inhibition [6] [%] | IC50 [7] [nM] | Activity [8] [%]
1 | CCCC(Cc1ccc(C(=O)NCc2ccccc2C(F)(F)F)cc1)C(=O)OCC (stereo not drawn) | Not Active | inactive | Not Active | 3.75 (≈ 1.58 µg/mL) | inactive |  |  | 
2 | CCC(Cc1ccc(C(=O)NCc2ccc(F)cc2)cc1)C(=O)O (stereo not drawn) | Not Active | inactive | Not Active |  |  | 28 |  | 
3 | CCOC(=O)C(CC)Cc1ccc(C(=O)NCc2ccc(C(F)(F)F)cc2)cc1 (stereo not drawn) |  |  | Not Active |  |  |  | 570 | 22
4 | CCC(Cc1ccc(C(=O)NCc2ccccc2)cc1)C(=O)O (stereo not drawn) | Not Active | inactive | Not Active |  |  | 4 |  | 
5 | CCC(Cc1ccc(C(=O)NCc2ccccc2Cl)cc1)C(=O)O (stereo not drawn) | Not Active | inactive | Not Active |  |  | 20 |  | 
6 | CCC(Cc1ccc(C(=O)NCc2ccccc2Br)cc1)C(=O)O (stereo not drawn) | Not Active | inactive | Not Active | 375 (≈ 146 µg/mL) |  | 34 |  | 
7 | CCOC(=O)C(CC)Cc1ccc(C(=O)NCc2ccc(F)cc2C(F)(F)F)cc1 (stereo not drawn) | Not Active | inactive | Not Active |  |  |  | 120 | 
8 | CCOC(=O)C(C)Cc1ccc(C(=O)NCc2ccccc2C(F)(F)F)cc1 (stereo not drawn) | Not Active | inactive | Not Active | 7.5 (≈ 2.95 µg/mL) | inactive |  |  | 
9 | O=C(NCc1ccccc1C(F)(F)F)c1ccc(C2CC2C(=O)O)cc1 (stereo not drawn) | Not Active | inactive | Not Active |  | inactive |  |  | 
10 | CCC(Cc1cccc(C(=O)NCc2ccccc2C(F)(F)F)c1)C(=O)O (stereo not drawn) |  |  | Not Active |  | inactive |  |  | 34
11 | CCOC(=O)C(CC)Cc1ccc(C(=O)NCc2ccccc2C)cc1 (stereo not drawn) |  |  | Not Active |  |  |  | 900 | 15
12 | CCC(Cc1ccc(C(=O)NCc2ccccc2OC(F)(F)F)cc1)C(=O)O (stereo not drawn) | Not Active | inactive | Not Active | 375 (≈ 148 µg/mL) |  | 23 |  | 
13 | CCOC(=O)C(CC)Cc1ccc(C(=O)NCc2ccc(OC(F)(F)F)cc2)cc1 (stereo not drawn) |  |  | Not Active |  |  |  | 900 | 
14 | CCOC(=O)C(CC)Cc1ccc(C(=O)NCc2ccccc2OC(F)(F)F)cc1 (stereo not drawn) | Not Active | inactive | Not Active | 75 (≈ 31.8 µg/mL) |  |  | 30 | 
15 | CCOC(=O)C(CC)Cc1ccc(C(=O)NCc2ccc(OC)cc2C(F)(F)F)cc1 (stereo not drawn) |  |  | Not Active |  |  |  | 30 | 22
16 | CCOC(=O)CCc1ccc(C(=O)NCc2ccccc2C(F)(F)F)cc1 | Not Active | inactive | Not Active | 3.75 (≈ 1.42 µg/mL) | inactive |  |  | 
17 | CCOC(=O)C(CC)Cc1ccc(C(=O)NCc2ccc(F)cc2)cc1 (stereo not drawn) | Not Active | inactive | Not Active |  |  |  | 2200 | 

Row | SMILES | EC50 [1] | Emax [2] | EC50 [3] | solubility [4] [µM] | Emax [5] | inhibition [6] [%] | IC50 [7] [nM] | Activity [8] [%]
18 | CCOC(=O)C(CC)Cc1ccc(C(=O)NCc2ccccc2)cc1 (stereo not drawn) | Not Active | inactive | Not Active |  |  |  | 8500 | 
19 | CC(Cc1ccc(C(=O)NCc2ccccc2C(F)(F)F)cc1)C(=O)O (stereo not drawn) | Not Active | inactive | Not Active | 375 (≈ 137 µg/mL) | inactive |  |  | 
20 | CCOC(=O)C(Cc1ccc(C(=O)NCc2ccccc2C(F)(F)F)cc1)c1ccccc1 (stereo not drawn) | Not Active | inactive | Not Active | 3.75 (≈ 1.71 µg/mL) | inactive |  |  | 
21 | O=C(NCc1ccccc1C(F)(F)F)c1ccc(CC(C(=O)O)c2ccccc2)cc1 (stereo not drawn) | Not Active | inactive | Not Active | 75 (≈ 32.1 µg/mL) | inactive |  |  | 
22 | CCOC(=O)C(CC)Cc1ccc(C(=O)NCc2ccc(Cl)cc2)cc1 (stereo not drawn) | Not Active | inactive | Not Active | 7.5 (≈ 2.8 µg/mL) |  |  | 1700 | 
23 | CCC(Cc1ccc(C(=O)NCc2ccc(Cl)cc2)cc1)C(=O)O (stereo not drawn) | Not Active | inactive | Not Active | 375 (≈ 130 µg/mL) |  |  | 1500 | 
24 | CCC(Cc1ccc(C(=O)NCc2ccccc2C)cc1)C(=O)O (stereo not drawn) | Not Active | inactive | Not Active |  |  | 25 |  | 
25 | CCC(Cc1ccc(C(=O)NCc2ccc(OC)cc2)cc1)C(=O)O (stereo not drawn) | Not Active | inactive | Not Active | 375 (≈ 128 µg/mL) |  | 34 |  | 
26 | CCOC(=O)C(CC)Cc1ccc(C(=O)NCc2ccccc2Cl)cc1 (stereo not drawn) | Not Active | inactive | Not Active |  |  |  | 3800 | 
27 | CCC(Cc1ccc(C(=O)NCc2ccc(F)cc2C(F)(F)F)cc1)C(=O)O (stereo not drawn) | Not Active | inactive | Not Active |  |  |  | 1200 | 
28 | CCOC(=O)C(CC)Cc1ccc(C(=O)NCc2ccc(OC)cc2)cc1 (stereo not drawn) | Not Active | inactive | Not Active | 7.5 (≈ 2.77 µg/mL) |  |  | 620 | 
29 | CCOC(=O)C(CC)Cc1cccc(C(=O)NCc2ccccc2C(F)(F)F)c1 (stereo not drawn) | Not Active | inactive | Not Active |  | inactive |  |  | 
30 | CC/C(=C\c1ccc(C(=O)NCc2ccccc2C(F)(F)F)cc1)C(=O)O | Not Active | inactive | Not Active |  | inactive |  |  | 
31 | CCC(Cc1ccc(C(=O)NCc2ccc(OC(F)(F)F)cc2)cc1)C(=O)O (stereo not drawn) |  |  | Not Active |  |  |  | 14000 | 
32 | CCCC(Cc1ccc(C(=O)NCc2ccccc2C(F)(F)F)cc1)C(=O)O (stereo not drawn) | Not Active | inactive | Not Active | 375 (≈ 148 µg/mL) | inactive |  |  | 
33 | CCOC(=O)/C(=C/c1ccc(C(=O)NCc2ccccc2C(F)(F)F)cc1)CC | Not Active | inactive | Not Active |  | inactive |  |  | 
34 | O=C(O)CCc1ccc(C(=O)NCc2ccccc2C(F)(F)F)cc1 | Not Active | inactive | Not Active | 375 (≈ 132 µg/mL) | inactive |  |  | 
